The values that follow come from US20020072081A1, “Geranylgeranyl transferase inhibitor screening assay” (priority 2000, published 2002).

This assay concerns the target T1, GGTase-I (Rattus norvegicus, UniProt P53610).
T1 construct: endogenous in cells; host or cells: H-ras transformed Rat1 fibroblast cell line (Hras2b/rat1)
Description: Cell Radiotracer Assay of Geranylgeranyl Transferase Inhibitor (CRAGGTI), radioligand binding to living cells. The settings on record: H-ras transformed Rat1 fibroblast cell line; specific binding, non-specific determined with 1000-fold molar excess of unlabeled Compound A; read-out: concentration of [^3H] Compound A that achieves half maximal binding to cells (apparent Kd). The procedure: In an embodiment of the instant invention, the assay involves growing a cell line in 24-well cell culture plates as an adherent population of cells until the cell culture is nearly confluent. The concentration of radioligand required to achieve half-maximal specific binding to cells is determined by adding the radioligand at varying concentrations to cell culture media, and incubating this mixture with the cells for a defined period of time. To determine the level of non-specific binding of the radioligand, excess unlabeled GGTase-I inhibitor (unlabeled radioligand) is added to some of the wells. After incubation, the unbound radioligand is removed from the cells. […] The cell layer is then solubilized and analyzed. Having determined the concentration of radioligand that achieves half maximal binding to cells, one can determine the relative IC50s of test compounds by incubating varying concentrations of test compounds with the appropriate concentration of radioligand, and perform the cell incubations, washes, and solubilization steps as described. […]
Briefly, the method involves growing a cell line in 24-well cell culture plates as an adherent population of cells until the cell culture is nearly confluent. […] Compound A required to achieve half-maximal specific binding to cells is determined by adding [^3H] […] Having determined the concentration of [^3H] […]

Structures are written as SMILES.

With `[3H]C(O)(CN1CCN(Cc2cncn2Cc2ccc(C#N)cc2)CC1=O)C12CC3CC(CC(C3)C1)C2` (stereo not shown) [[^3H] Compound A, [^3H]-R/S 1-(4-Cyanobenzyl)-5-[1-(2-hydroxy-2-(adamant-1-yl)ethyl)-2-oxo-piperazin-4-vl-methyl]imidazole], the Kd is roughly 0.3 nM.
